No end group written: not given here.

Some targets named below: HLA-A*0301 (Homo sapiens, UniProt P04439); HLA-A*3101 (Homo sapiens, UniProt P04439, A270S/D185E/E176V/E277Q/F33T/G231S/G80R/H175R/I121M/I218V/I322F/K168Q/L300P/L318F/M331R/P217A/Q94H/R138Q/T323A/T345S/T97I/V358M); HLA-A*1101 (Homo sapiens, UniProt P04439, A114D/D185E/E176A/F33Y/L180Q/S129P/T187R); HLA-A*3301 (Homo sapiens, UniProt P04439, A270S/D185E/E176V/E277Q/E87N/F33T/G231S/H175R/I121M/I218V/I322F/K168Q/K210R/L300P/L318F/M331R/P217A/Q86R/Q94H/R138Q/T323A/T345S/T97I/V358M/Y195H); HLA-A*6801 (Homo sapiens, UniProt P04439, A269V/D185E/E176V/E277Q/E87N/F33Y/G231S/I121M/I166T/I218V/L180W/L300P/L318F/N151K/P208A/P217A/Q86R/R169H/T345S).

Holding throughout (experiment): biochemical
Format in all cases: binding

HLA-A*1101, sequence (P04439 25-365 limits assumed, stated change not applied): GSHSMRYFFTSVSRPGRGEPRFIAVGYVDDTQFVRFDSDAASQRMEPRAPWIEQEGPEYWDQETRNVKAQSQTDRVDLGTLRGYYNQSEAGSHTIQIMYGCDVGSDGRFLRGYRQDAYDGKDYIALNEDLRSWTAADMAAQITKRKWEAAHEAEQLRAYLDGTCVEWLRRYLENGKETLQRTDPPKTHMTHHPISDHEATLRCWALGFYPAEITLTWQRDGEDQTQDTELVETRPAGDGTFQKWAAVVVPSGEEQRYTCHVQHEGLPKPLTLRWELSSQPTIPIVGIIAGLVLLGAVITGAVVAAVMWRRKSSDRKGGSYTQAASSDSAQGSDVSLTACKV

The IC50 is the point on the concentration scale where inhibition reaches its midpoint. For the sequence GVSHAQLPAK, the IC50 at HLA-A*0301 was 42 nM; on HLA-A*3101 it was 36000 nM; against HLA-A*1101 it was 12 nM; against HLA-A*3301 it was over 74.9 µM; on HLA-A*6801 it was 20600 nM.

As for KSMLKELIK, the IC50 is 189 nM against HLA-A*0301; 450 nM on HLA-A*3101; 151 nM against HLA-A*1101; over 46.5 µM against HLA-A*3301; over 37000 nM on HLA-A*6801.

In the case of VTIKIEGQLK, the IC50 worked out at 361 nM at HLA-A*0301; 5080 nM at HLA-A*3101; 69 nM against HLA-A*1101; 58 µM against HLA-A*3301; 27 nM against HLA-A*6801.

Consider LTISYGRKK, for which the IC50 on HLA-A*0301 was 584 nM; against HLA-A*3101 it was 13900 nM; against HLA-A*1101 it was 69 nM; on HLA-A*3301, 59.7 µM; against HLA-A*6801, 63 nM.

For ETNPFGICK, the IC50 at HLA-A*0301 stood at 9590 nM; on HLA-A*3101, 29100 nM; against HLA-A*1101, 100 nM; against HLA-A*3301 it was 0.804 µM; on HLA-A*6801 it was 14 nM.

For the sequence DTLEQTLKR, the IC50 turned out to be 31300 nM against HLA-A*0301; 38100 nM on HLA-A*3101; 12900 nM on HLA-A*1101; 0.0092 µM on HLA-A*3301; 110 nM against HLA-A*6801.

With KMFLQLAK, the IC50 was 45 nM on HLA-A*0301; 677 nM on HLA-A*3101; 62 nM on HLA-A*1101; over 126 µM at HLA-A*3301; 8380 nM at HLA-A*6801.

As for KFSEFRWYRY, the IC50 at HLA-A*0301 was determined as 4750 nM; against HLA-A*3101, 34 nM; against HLA-A*1101, 1590 nM; against HLA-A*3301, 0.856 µM; on HLA-A*6801, 12800 nM.

Consider LTISYGRK, for which the IC50 against HLA-A*0301 was 988 nM; against HLA-A*3101, 27100 nM; on HLA-A*1101, 708 nM; at HLA-A*3301, 38.2 µM; against HLA-A*6801, 482 nM.

For LVTDLRIVYR, the IC50 at HLA-A*0301 is 3870 nM; on HLA-A*3101 it was 20 nM; against HLA-A*1101 it was 648 nM; at HLA-A*3301, 0.15 µM; against HLA-A*6801, 6.8 nM.

KTLGISYGRK: the IC50 on HLA-A*0301 was determined as 36 nM; against HLA-A*3101, 841 nM; on HLA-A*1101 it was 79 nM; against HLA-A*3301, 42.4 µM; on HLA-A*6801, 1630 nM.

In the case of VSHAQLPAK, the IC50 at HLA-A*0301 turned out to be 378 nM; against HLA-A*3101, 46 nM; on HLA-A*1101, 9.5 nM; against HLA-A*3301 it was 1.4 µM; against HLA-A*6801, 13500 nM.

For the sequence SSFDIKSEVK, the IC50 was 1900 nM at HLA-A*0301; 19800 nM at HLA-A*3101; 19 nM against HLA-A*1101; 70.3 µM at HLA-A*3301; 31 nM at HLA-A*6801.

AVKDLFVVYR: the IC50 at HLA-A*0301 stood at 1730 nM; against HLA-A*3101, 3.1 nM; on HLA-A*1101, 91 nM; on HLA-A*3301, 0.0091 µM; at HLA-A*6801 it was 3.3 nM.

For the sequence KISEYRHYNK, the IC50 is 29 nM at HLA-A*0301; 397 nM on HLA-A*3101; 18 nM against HLA-A*1101; 24.8 µM against HLA-A*3301; 15600 nM on HLA-A*6801.

PVLTSLFNK: the IC50 against HLA-A*0301 is 1950 nM; against HLA-A*3101, 5110 nM; on HLA-A*1101 it was 25 nM; on HLA-A*3301, 18.3 µM; against HLA-A*6801, 29900 nM.

As to ALERLLSLK, the IC50 against HLA-A*0301 worked out at 233 nM; against HLA-A*3101, 3430 nM; against HLA-A*1101, 369 nM; against HLA-A*3301, 12.8 µM; at HLA-A*6801, 13700 nM.

Turning to RVHSIAGQYR, the IC50 is 31 nM at HLA-A*0301; 7.6 nM on HLA-A*3101; 34 nM at HLA-A*1101; 0.812 µM on HLA-A*3301; 28 nM on HLA-A*6801.

On to KQRFHNIRGK, for which the IC50 against HLA-A*0301 came out at 55 nM; at HLA-A*3101 it was 573 nM; against HLA-A*1101, 1950 nM; against HLA-A*3301 it was 35.2 µM; on HLA-A*6801 it was 22900 nM.

In the case of KVSEFRWYRR, the IC50 on HLA-A*0301 turned out to be 266 nM; against HLA-A*3101, 2.8 nM; at HLA-A*1101, 16 nM; against HLA-A*3301, 0.159 µM; on HLA-A*6801, 30 nM.

As to GTGISYGRK, the IC50 at HLA-A*0301 is 480 nM; against HLA-A*3101, 58100 nM; on HLA-A*1101, 77 nM; against HLA-A*3301, over 43.7 µM; on HLA-A*6801, 7410 nM.

Consider EVYNFACTELK, for which the IC50 is 1620 nM on HLA-A*0301; 484 nM against HLA-A*3101; 117 nM at HLA-A*1101; 0.0059 µM on HLA-A*3301; 2.7 nM at HLA-A*6801.

On to PVRPQVPLR, for which the IC50 is over 10900 nM at HLA-A*0301; 332 nM at HLA-A*3101; 16100 nM at HLA-A*1101; 3.44 µM against HLA-A*3301; 7010 nM against HLA-A*6801.

On to KVGSLQYLK, for which the IC50 at HLA-A*0301 is 482 nM; against HLA-A*3101, 2100 nM; against HLA-A*1101 it was 70 nM; against HLA-A*3301, over 43.7 µM; against HLA-A*6801, 4200 nM.

VTIRVGGQLK: the IC50 turned out to be 43 nM on HLA-A*0301; 3590 nM at HLA-A*3101; 13 nM at HLA-A*1101; 86.1 µM on HLA-A*3301; 28 nM on HLA-A*6801.

Regarding YLFNQHIKK, the IC50 on HLA-A*0301 came to 14 nM; on HLA-A*3101, 4920 nM; against HLA-A*1101, 7.8 nM; against HLA-A*3301, 7.97 µM; on HLA-A*6801, 14 nM.

As for KTLGISYGR, the IC50 on HLA-A*0301 was determined as 53 nM; against HLA-A*3101 it was 21 nM; on HLA-A*1101, 9.8 nM; against HLA-A*3301 it was 0.502 µM; on HLA-A*6801, 36 nM.

As for FAFADLTVVY, the concentration for half-maximal inhibition (IC50) was 18600 nM at HLA-A*0301; 23700 nM at HLA-A*3101; 5870 nM against HLA-A*1101; 26.8 µM on HLA-A*3301; 402 nM at HLA-A*6801.

With FISFYLINK, the IC50 against HLA-A*0301 turned out to be 19 nM; on HLA-A*3101, 2190 nM; against HLA-A*1101 it was 9 nM; against HLA-A*3301 it was 1.46 µM; against HLA-A*6801 it was 18 nM.

Regarding DTVYGDTLEK, the IC50 stood at 50 nM against HLA-A*0301; 28800 nM against HLA-A*3101; 15 nM against HLA-A*1101; 55.1 µM against HLA-A*3301; 31 nM at HLA-A*6801.

For the sequence NSVYGETLER, the IC50 at HLA-A*0301 was found to be 150 nM; on HLA-A*3101 it was 163 nM; against HLA-A*1101 it was 25 nM; against HLA-A*3301, 1.33 µM; on HLA-A*6801, 18 nM.

Take RVHFASPLH: the IC50 was 12 nM at HLA-A*0301; 572 nM on HLA-A*3101; 60 nM at HLA-A*1101; over 123 µM on HLA-A*3301; 7620 nM against HLA-A*6801.

In the case of VTIRIGGQLK, the IC50 against HLA-A*0301 was 51 nM; on HLA-A*3101, 4460 nM; against HLA-A*1101 it was 14 nM; against HLA-A*3301, 65.8 µM; against HLA-A*6801, 25 nM.

For KVGPGGYPRRK, the IC50 against HLA-A*0301 is 70 nM; on HLA-A*3101, 775 nM; against HLA-A*1101 it was 87 nM; against HLA-A*3301, over 5.06 µM; at HLA-A*6801 it was 921 nM.

Regarding RLLSKISEYR, the IC50 against HLA-A*0301 was found to be 5.2 nM; on HLA-A*3101 it was 7.7 nM; at HLA-A*1101, 662 nM; on HLA-A*3301 it was 0.108 µM; on HLA-A*6801 it was 21 nM.

For ELTEVFEFAFK, the IC50 on HLA-A*0301 came out at 8970 nM; on HLA-A*3101, 25200 nM; at HLA-A*1101, 582 nM; against HLA-A*3301, 1.73 µM; at HLA-A*6801 it was 15 nM.

The record behind these values is patent US20060079453A1, “Hla binding peptides and their uses” (priority 2002, published 2006).
